The text below walks through data of article PMC10394516, “The pharmacokinetic profile of brensocatib and its effect on pharmacodynamic biomarkers including NE, PR3, and CatG in various rodent species” (Frontiers in Pharmacology, 2023).

Like-named read-outs stand apart in the source and are kept apart here.

The nature of data set [1]: Plasma PK of brensocatib, BID vs QD oral dosing, BALB/c mice. Format: in vivo. To be noted: for half-life / AUC(0-t): both sexes, BALB/c, mouse, po. The method, then:
A dose frequency study was performed in male and female mice (C57BL/6 & BALB/c) and in male and female rats (Sprague Dawley & Wistar) investigating twice daily (BID) versus once daily (QD) brensocatib administration.
Briefly, animals were weighed and randomized into different treatment groups. In total, three different dosing levels of brensocatib were tested in each species and strain; each QD dosing level was equivalent to 1.5-times the matching daily BID dose. For BID dosing, the second daily dose was administered 8-h post the morning dose. C57BL/6 mice were dosed either BID or QD for 7 consecutive days at 0/0, 0.5/0.75, 2/3, and 20/30 mg/kg/day (BID/QD). BALB/c mice were dosed for 7 consecutive days at 0/0, 0.2/0.3, 2/3, and 20/30 mg/kg/day (BID/QD). SD rats were dosed for 9 consecutive days at 0/0, 0.2/0.3, 2/3, and 20/30 mg/kg/day (BID/QD). Wistar rats were dosed for 7 consecutive days at 0/0, 0.2/0.3, 2/3, and 20/30 mg/kg/day (BID/QD).
For sparse PK analysis via LC-MS/MS, plasma was collected from animals during the first 24 h of dosing at prescribed timepoints. The timepoints included 1, 3, 8, and 24 h post initial dose for QD groups, and 1, 3, 8, 9, 11, and 24 h post initial dose for BID groups. Note that the 8- and 24-h plasma samples were prior to the afternoon dose for BID groups and prior to the second day dose for all groups, respectively. See section Quantification of Plasma Brensocatib Concentrations for details.
Blood was collected via the tail-vein technique and centrifuged to separate and collect the plasma. The resulting plasma samples were stored at −20°C or lower until LC-MS/MS analysis.
The plasma concentration of brensocatib was quantified by liquid chromatography, tandem mass spectrometry (LC-MS/MS), a Sciex API6500 mass spectrometer (SCIEX, Framingham, MA). Two brensocatib stock solutions were prepared, one for the preparation of the 8-point standard (STD) curve spiking solutions and the other for the preparation of the quantitative control spiking solutions (QCs) at three levels. The STD curve and QCs were prepared by 2% spiking from the spiking solutions into mouse or rat plasma. The samples were extracted using a protein precipitation method, where 10 µL of sample was mixed with 100 µL of internal standard working solution (100 ng/mL ^6C13-brensocatib in methanol), vortexed for 5 s, and centrifuged at 21,130 × g at 4°C for 15 min. The supernatant was mixed with an equal volume of water and 10 μL was injected into a Phenomenex Kinetex Biphenyl column (3.0 mm × 50 mm; 2.6 μm; 65°C; 0.8 mL/min) with an elution gradient consisting of mobile phase A (10 mM ammonium formate) and mobile phase B (methanol) over 2 min from 5% to 95% B. The mass spectrometer was equipped with an atmospheric-pressure chemical ionization source operating in positive mode.
Individual plasma concentrations were plotted and the area under the curve (AUC) was calculated using the trapezoid method. The elimination rate constant (k e ) was calculated as the negative natural log of the plasma concentration over time (Eq. 1) starting at the max concentration (C max) after the most recent dose to the last measurable plasma concentration between doses. The calculated k e was used to define the half-life (t 1/2 ) based on Eq. 2; where 0.693 is the natural log of 2 and assumes a first-order reaction. ke=−ln∆C/∆t (1) t1/2=0.693/ke (2)

The test system of another data set is CatG. Also noted: method as in Cipolla et al., 2023. The settings on record: Phase 2 trial in NCFBE (WILLOW); ref Cipolla et al., 2023; cited from earlier work.

For the compound `Cn1c(=O)oc2ccc(-c3ccc(C[C@@H](C#N)NC(=O)[C@@H]4CNCCCO4)cc3)cc21` [brensocatib], the half-life is 0.67 ± 0.04 h in data set [1] (0.2 mg/kg/day, oral BID, 0.2 mg/kg/day, evening dose, read-out: t1/2, PM dose (converted)); 1.58 ± 0.72 h in data set [1] (0.2 mg/kg/day, oral BID, 0.2 mg/kg/day, morning dose, read-out: t1/2, AM dose (converted)); 0.97 ± 0.03 h in data set [1] (0.3 mg/kg/day, oral QD, 0.3 mg/kg/day, read-out: t1/2, AM dose (converted)); 1.19 ± 0.34 h in data set [1] (2 mg/kg/day, oral BID, 2 mg/kg/day, evening dose, read-out: t1/2, PM dose (converted)); 3.22 ± 0.35 h in data set [1] (2 mg/kg/day, oral BID, 2 mg/kg/day, morning dose, read-out: t1/2, AM dose (converted)); 0.83 ± 0.03 h in data set [1] (3 mg/kg/day, oral QD, 3 mg/kg/day, read-out: t1/2, AM dose (converted)). Besides, the half-life in data set [1] (20 mg/kg/day, oral BID, 20 mg/kg/day, evening dose, read-out: t1/2, PM dose (converted)) was 1.88 ± 0.06 h; in data set [1] (20 mg/kg/day, oral BID, 20 mg/kg/day, morning dose, read-out: t1/2, AM dose (converted)) it was 2.47 ± 0.31 h; in data set [1] (30 mg/kg/day, oral QD, 30 mg/kg/day, read-out: t1/2, AM dose (converted)) it was 2.56 ± 0.14 h. Further, the AUC(0-t) is 124 ± 31 ng·h/mL in data set [1] (0.2 mg/kg/day, oral BID, 0.2 mg/kg/day, first 24 h, read-out: AUC0–24h); 0.29 ± 0.07 µM·h in data set [1] (0.2 mg/kg/day, oral BID, 0.2 mg/kg/day, first 24 h, read-out: AUC(0–24)); 188 ± 31 ng·h/mL in data set [1] (0.3 mg/kg/day, oral QD, 0.3 mg/kg/day, first 24 h, read-out: AUC0–24h); 0.45 ± 0.07 µM·h in data set [1] (0.3 mg/kg/day, oral QD, 0.3 mg/kg/day, first 24 h, read-out: AUC(0–24)); 1510 ± 395 ng·h/mL in data set [1] (2 mg/kg/day, oral BID, 2 mg/kg/day, first 24 h, read-out: AUC0–24h); 3.59 ± 0.94 µM·h in data set [1] (2 mg/kg/day, oral BID, 2 mg/kg/day, first 24 h, read-out: AUC(0–24)). The AUC(0-t) in data set [1] (3 mg/kg/day, oral QD, 3 mg/kg/day, first 24 h, read-out: AUC0–24h) came to 2960 ± 679 ng·h/mL; in data set [1] (3 mg/kg/day, oral QD, 3 mg/kg/day, first 24 h, read-out: AUC(0–24)), 7.04 µM·h; in data set [1] (20 mg/kg/day, oral BID, 20 mg/kg/day, first 24 h, read-out: AUC0–24h) it was 24100 ng·h/mL; in data set [1] (20 mg/kg/day, oral BID, 20 mg/kg/day, first 24 h, read-out: AUC(0–24)) it was 57.3 ± 11.4 µM·h; in data set [1] (30 mg/kg/day, oral QD, 30 mg/kg/day, first 24 h, read-out: AUC0–24h) it was 56300 ng·h/mL; in data set [1] (30 mg/kg/day, oral QD, 30 mg/kg/day, first 24 h, read-out: AUC(0–24)), 134 ± 41.1 µM·h. For the same compound, the “AUC(0–24)” value in data set [1] (oral QD, 3 mg/kg/day, first 24 h) was 7.05 ± 1.61 µM·h. In addition, the “sputum CatG activity” value in the data set with CatG is reported as “Dose-dependent reductions”.
